Test results as given in PMC11173533, “Baicalin and Baicalein Enhance Cytotoxicity, Proapoptotic Activity, and Genotoxicity of Doxorubicin and Docetaxel in MCF-7 Breast Cancer Cells” (Molecules, 2024).

Legend:
Assay type in all cases: cell-based, human
MCF-7 cells [1] = assay: MTT cell viability assay on MCF-7 cells; conditions: for IC50: Homo sapiens, MCF7, 2 h incubation, breast cancer cells, used for both cell lines, read-out: Drug IC50 concentration from MTT survival curves; for Concentrations giving statistically significant decrease in survival: MCF-7, 2 h incubation with anticancer drug, MTT
Method: (§1) Unless otherwise indicated, in experiments, cells were seeded at an appropriate density for the specific assay into 96-well plates or Petri dishes. They were then incubated in standard culture conditions, which included a temperature of 37 °C, 100% relative humidity, and a 5% CO2 incubator. […] After treatment, the cells were washed with PBS and, depending on the experiment, immediately used for measurement or cultured in a fresh medium for 24 or 48 h. Control cells were treated with a corresponding volume of PBS. Additional controls for solvents were also performed.
(§2) The principle of the method is a measurement of the absorbance of formazan, a product of the reduction of the water-soluble tetrazolium salt (MTT) by NADPH-dependent cellular oxidoreductases (mainly succinate dehydrogenase) in living cells. Formazan is insoluble in water and precipitates as purple crystals. The amount of formazan is proportional to the number of living and metabolically active cells.
(§3) After treatment, the cells were washed with PBS and cultured in a fresh medium for 48 h. Subsequently, the medium was aspirated, and an aliquot of 50 µL of 0.05 mg/mL MTT solution was added to each microplate well for 3 h. The formazan crystals were dissolved in dimethyl sulfoxide (DMSO), and the absorbance was measured at a wavelength of λ = 580 nm. The percentage of viable cells was calculated by comparing the absorbance value of the test samples to the absorbance value of the control, taking the absorbance of the control as 100%.

MCF-7 cells [2] = assay: Annexin V FITC/propidium iodide double staining in MCF-7 cells; conditions: for Viable cells: docetaxel IC50 alone
Method: as §1
(§4) This assay is based on the principle that, in viable cells, phosphatidylserine (PS) is located in the inner membrane (side facing the cytoplasm). However, upon induction of apoptosis, PS is translocated to the outer membrane (PS also appears on the necrotic cell surface). The exposed phosphatidylserine can be detected by protein Annexin V stained with FITC dye. The addition of propidium iodide (PI) enabled necrotic cells to be distinguished. Thus, this method is convenient for counting and differentiating live cells from those undergoing apoptosis or necrosis.
(§5) The analysis was performed according to the manufacturer’s protocol on cells immediately after the treatment and 24 or 48 h postincubation. Samples were analyzed using the flow cytometer LSR® II from Becton Dickinson (San Jose, CA, USA) using an argon laser with a wavelength of λ = 488 nm.

MCF-7 cells [3] = assay: Mitochondrial membrane potential (JC-1) in MCF-7 cells; conditions: anticancer drug IC50 alone 2 h, control = 100%
Method: as §1
(§6) The mitochondrial membrane potential was measured with the membrane-permeant JC-1 fluorescent probe. […] Thus, the measurement of the ratio of JC-1 dimer to monomer fluorescence can be used for estimating changes in mitochondrial membrane potential (ΔΨm).
(§7) The cells were then incubated in complete darkness for 30 min at 37 °C. After incubation, the cells were washed to remove the dye and suspended in fresh HBSS solution. Finally, the fluorescence intensity was measured using a Cary Eclipse spectrofluorometer (Varian, Inc.) at λex/em = 475 nm/530 nm for monomers and at λex/em = 535 nm/590 nm for dimers. Subsequently, the ratio of the fluorescence intensities at 530 nm/590 nm was calculated. The mitochondrial potential in both cell lines was measured immediately after incubation with investigated compounds. The results are expressed as a percentage of the control, considered 100%.

HUVEC-ST cells [4] = assay: Mitochondrial membrane potential (JC-1) in HUVEC-ST cells; conditions: anticancer drug IC50 alone 2 h, control = 100%
Method: as §1, §6, §7

HUVEC-ST cells [5] = assay: MTT cell viability assay on HUVEC-ST cells; conditions: HUVEC-ST, MTT
Method: as §1, §2, §3

HUVEC-ST cells [6] = assay: Annexin V FITC/propidium iodide double staining in HUVEC-ST cells; conditions: docetaxel IC50 alone
Method: as §1, §4, §5

HUVEC-ST cells [7] = assay: Alkaline comet assay in HUVEC-ST cells; conditions: doxorubicin IC50 alone, 48 h after incubation
Method: as §1
The comet assay, also known as the single-cell gel electrophoresis assay, is a highly sensitive and versatile method for measuring single- and double-stranded DNA breaks. The assay uses an electric field to move negatively charged DNA fragments through an agarose gel. The amount of migration reflects the level of DNA damage in the cells.
The analysis was performed under alkaline conditions, according to the method of Singh et al., on cells immediately after the treatment and 24 or 48 h postincubation. A suspension of cells was mixed with low-melting-point agarose (LMP type XI) and spread onto a microscope glass slide previously coated with standard melting point agarose (NMP type I). After 2 h of cells lysis in a buffer containing (2.5 mol/L NaCl, 100 mmol/L Na2-EDTA, 10 mmol/L TRIS, 1% Triton X-100), DNA unwinding and electrophoresis were carried out in a buffer containing (1 mmol/L Na2-EDTA, 300 mmol/L NaOH) and (29 V, 30 mA). Before analysis, the slides were stained with DAPI solution (2 μg/mL). One hundred randomly chosen cells were analyzed on each slide using a fluorescence microscope Zeiss Axio Scope A1 (Carl Zeiss, Oberkochen, Germany) with a video camera connected to the image-analysis system Lucia-Comet v. 7.60 (Laboratory Imaging, Praha, Czech Republic).

[8] = Annexin V FITC/propidium iodide double staining in HUVEC-ST cells; conditions: human, HUVEC-ST cells, doxorubicin IC50 alone, longest postincubation time (48 h), read-out: Viable cells
Method: as §1, §4, §5

| SMILES | IC50 (MCF-7 cells [1]) [nM] | Concentrations giving statistically significant decrease in survival (MCF-7 cells [1]) [µmol/L] | Viable cells (MCF-7 cells [2]; 24 h after incubation) [%] | Viable cells (MCF-7 cells [2]; 48 h after incubation) [%] | Mitochondrial membrane potential ΔΨm, % of control (MCF-7 cells [3]) [%] | Mitochondrial membrane potential ΔΨm, % of control (HUVEC-ST cells [4]) [%] | Decrease in survival at highest concentration (HUVEC-ST cells [5]; 6 µmol/L, 2 h incubation) [%] | AV+/PI+ cells (HUVEC-ST cells [6]; 24 h after incubation) [%] | AV+/PI+ cells (HUVEC-ST cells [6]; longest postincubation time (48 h)) [%] | DNA in the comet tail (HUVEC-ST cells [7]) [%] | Viable cells (MCF-7 cells [1]; MCF-7, doxorubicin 3 µmol/L used alone) [%] | AV+/PI− cells (undergoing apoptosis) (MCF-7 cells [2]; doxorubicin IC50 alone, 48 h post-incubation) [%] | Concentrations giving statistically significant decrease in survival (HUVEC-ST cells [5]; 2 h incubation with anticancer drug) [µmol/L] | viability [8] [%] |
| --- | --- | --- | --- | --- | --- | --- | --- | --- | --- | --- | --- | --- | --- | --- |
| CC(=O)O[C@@]12CO[C@@H]1C[C@H](O)[C@@]1(C)C(=O)[C@H](O)C3=C(C)[C@@H](OC(=O)[C@H](O)[C@@H](NC(=O)OC(C)(C)C)c4ccccc4)C[C@@](O)([C@@H](OC(=O)c4ccccc4)[C@H]21)C3(C)C [docetaxel] | 100 | ≥ 0.02 | 53 | 43 | 65 | 54 | 20 | 23 | 26 | – | – | – | – | – |
| COc1cccc2c1C(=O)c1c(O)c3c(c(O)c1C2=O)C[C@@](O)(C(=O)CO)C[C@@H]3O[C@H]1C[C@H](N)[C@H](O)[C@H](C)O1 [doxorubicin, Doxorubicin] | 3000 | ≥ 1 | – | – | 57 | 73 | – | – | – | 10 | 54 | 12 | ≥ 0.5 | 47 |
